The source of these data is patent US6936630B2, “Substituted 1-aryl-3-heteroaryl-thioureas and substituted 1-aryl-3-heteroaryl-isothioureas as antiatherosclerotic agents” (Wyeth, priority 1997, dated 2005).

One data set concerns serum HDL cholesterol. Kind of data set: in vivo test procedure measuring elevation of HDL cholesterol levels in cholesterol/cholic acid-fed rats. Also noted: species or system Male Sprague-Dawley rats. The settings on record: rats fed diet with 0.25% cholic acid and 1.0% cholesterol, 100 mg/kg/day in diet for 8 days, serum HDL cholesterol by FPLC; for change in vivo at 100 mg/kg/day: Rattus norvegicus, feed or water, 192 h, read-out: HDL Cholesterol Level Increase (%). The procedure:
Representative compounds according to the present invention were evaluated in an in vivo standard pharmacological test procedure which measured the ability of the compounds to elevate HDL cholesterol levels. The following describes the procedure used and results obtained. Male Sprague-Dawley rats weighing 200-225 g were housed two per cage and fed Purina Rodent Chow Special Mix 5001-S supplemented with 0.25% cholic acid and 1.0% cholesterol and water ad libitum for 8 days. Each test substance was administered to a group of six rats fed the same diet with the test diet mixed in as 0.005-0.1% of the total diet. Body weight and food consumption were recorded prior to diet administration and at termination. The test substances were administered at a dosage of 100 mg/kg/day.
At termination, blood was collected from anesthetized rats and the serum was separated by centrifugation. Total serum cholesterol was assayed using the Sigma Diagnostics enzymatic kit for the determination of cholesterol, Procedure No. 352, modified for use with ninety-six well microtiter plates. After reconstitution with water the reagent contains 300 U/l cholesterol oxidase, 100 U/l cholesterol esterase, 1000 U/l horse radish peroxidase, 0.3 mmoles/l 4-aminoantipyrine and 30.0 mmoles/l p-hydroxybenzene sulfonate in a pH 6.5 buffer. In the reaction, cholesterol was oxidized to produce hydrogen peroxide which was used to form a quinoneimine dye. The concentration of dye formed was measured spectrophotometrically by absorbance at 490 nm after incubation at 25° C. for 30 minutes. The concentration of cholesterol was determined for each serum sample relative to a commercial standard from Sigma.
HDL cholesterol concentrations in serum were determined by separation of lipoprotein classes by fast protein liquid chromatography (FPLC) by a modification of the method of Kieft et al., J. Lipid Res., 32 (1991), 859-866. Using this methodology, […] of serum was injected onto Superose 12 and Superose 6 (available from Pharmacia), in series, with a column buffer of 0.05 M Tris (2-amino-2-hydroxymethyl-1,3-propanediol) and 0.15 M sodium chloride at a flow rate of 0.5 mL/min. The eluted sample was mixed on line with Boehringer-Mannheim cholesterol reagent pumped at 0.2 mL/min. The combined eluents were mixed and incubated on line through a knitted coil (available from Applied Biosciences) maintained at a temperature of 45° C. The eluent was monitored by measuring absorbance at 490 nm and gave a continous absorbance signal proportional to the cholesterol concentration. The relative concentration for each lipoprotein class was calculated as the percent of total absorbance. HDL cholesterol concentration in serum, was calculated as the percent of total cholesterol as determined by FPLC multiplied by the total serum cholesterol concentration.
Test compounds were administered at a dose of 100 mg/kg for 8 days.

In general, melting point refers to the temperature, or range, at which the solid turns liquid.

In the case of `Cc1cc(NC(=S)Nc2cc(Cl)ccc2C)sn1` [Example 12, 1-(5-Chloro-2-methyl-phenyl)-3-(3-methyl-isothiazol-5-yl)-thiourea], the melting point is 187 to 188 °C (dec.). Further, in the data set with serum HDL cholesterol, the change in vivo at 100 mg/kg/day turned out to be 134%.

With `Cc1cc(Cl)ccc1NC(=S)Nc1c(C)nn(C)c1C` [Example 16, 1-(4-Chloro-2-methyl-phenyl)-3-(1,3,5-trimethyl-1H-pyrazol-4-yl)-thiourea 0.12 solvate with acetic acid ethyl ester], in the data set on serum HDL cholesterol, the “HDL Cholesterol Level Increase (%)” value was 104%.

For the compound `Cc1ccc(Cl)cc1NC(=S)Nc1cc[nH]n1` [Example 7, 1-(5-Chloro-2-methyl-phenyl)-3-(1H-pyrazol-3-yl)-thiourea], the melting point was 221 to 222 °C. The change in vivo at 100 mg/kg/day with serum HDL cholesterol was found to be 97%.

With `Cc1coc(NC(=S)Nc2cc(Cl)ccc2C)n1` [Example 4, 1-(5-Chloro-2-methyl-phenyl)-3-(4-methyl-oxazol-2-yl)-thiourea], the melting point lay in the range of 207 to 208 °C. For the same compound, the change in vivo at 100 mg/kg/day in the data set with serum HDL cholesterol came out at 158%.

The compound `Cc1ccc(Cl)cc1NC(=S)Nc1ccn(C)n1` [Example 6, 1-(5-Chloro-2-methyl-phenyl)-3-(1-methyl-1H-pyrazol-3-yl)-thiourea] yielded a melting point of 217 to 218 °C. For the same compound, in the data set with serum HDL cholesterol, the change in vivo at 100 mg/kg/day is -11%.

On to `Cc1cccc(Cl)c1NC(=S)Nc1c(C)nn(C)c1C` [Example 15, 1-(2-Chloro-6-methyl-phenyl)-3-(1,3,5-trimethyl-1H-pyrazol-4-yl)-thiourea], for which the melting point lay in the range of 201 to 202 °C. Besides, the change in vivo at 100 mg/kg/day in the data set with serum HDL cholesterol is 58%.

In the case of `Cc1ccc(Cl)cc1NC(=S)Nc1nc2ccc3ccccc3c2s1` [Example 3, 1-(5-Chloro-2-methyl-phenyl)-3-(naphtho[2,1-d]thiazol-2-yl)-thiourea], in the data set with serum HDL cholesterol, the change in vivo at 100 mg/kg/day was determined as 0.3%.

As for `Cc1coc(NC(=S)Nc2c(C)cccc2Cl)n1` [Example 18, 1-(2-Chloro-6-methyl-phenyl)-3-(4-methyl-oxazol-2-yl)-thiourea], the melting point is 222 °C (dec.). Also, the change in vivo at 100 mg/kg/day in the data set on serum HDL cholesterol is 193%.

In the case of `Cc1ccc(Cl)cc1NC(=S)Nc1nccs1` [Example 1, 1-(5-Chloro-2-methyl-phenyl)-3-(thiazol-2-yl)-thiourea], the melting point was 197 to 198 °C. Besides, the change in vivo at 100 mg/kg/day with serum HDL cholesterol stood at 65%.

`CS/C(=N/c1c(C)nn(C)c1C)Nc1cc(Cl)ccc1C` [Example 20, (E)-1-(5-Chloro-2-methyl-phenyl)-2-methyl-3-(1,3,5-trimethyl-1H-pyrazol-4-yl)-isothiourea] had a melting point of 134 to 135 °C. Besides, in the data set on serum HDL cholesterol, the change in vivo at 100 mg/kg/day amounted to 35%.

As to `Cc1coc(NC(=S)Nc2ccc(Cl)cc2C)n1` [Example 17, 1-(4-Chloro-2-methyl-phenyl)-3-(4-methyl-oxazol-2-yl)-thiourea], the melting point is 214 °C (dec.). Moreover, the change in vivo at 100 mg/kg/day with serum HDL cholesterol is 134%.

As to `Cc1nnc(NC(=S)Nc2cc(Cl)ccc2C)s1` [Example 5, 1-(5-Chloro-2-methyl-phenyl)-3-(5-methyl-[1,3,4]thiadiazol-2-yl)-thiourea], in the data set on serum HDL cholesterol, the change in vivo at 100 mg/kg/day was 69%.

The compound `Cc1ccc(Cl)cc1NC(=S)Nc1c(C)nn(C)c1C` [Example 8, 1-(5-Chloro-2-methyl-phenyl)-3-(1,3,5-trimethyl-1H-pyrazol-4-yl)-thiourea] returned a melting point of 176 to 177 °C. Further, in the data set with serum HDL cholesterol, the change in vivo at 100 mg/kg/day came out at 110%.

`Cc1ccc(Cl)cc1NC(=S)Nc1nc(C)c(C)s1` [Example 10, 1-(5-Chloro-2-methyl-phenyl)-3-(4,5-dimethyl-thiazol-2-yl)-thiourea] registered a melting point of 188 to 189 °C. Further, the change in vivo at 100 mg/kg/day in the data set on serum HDL cholesterol amounted to 41%.

As for `CCN(C(=Nc1cc(Cl)ccc1C)SC)c1c(C)nn(C)c1C.Cl` [Example 21, 3-(5-Chloro-2-methyl-phenyl)-1-ethyl-2-methyl-1-(1,3,5-trimethyl-1H-pyrazol-4-yl)-isothiourea 1:1 salt with hydrochloric acid], the “HDL Cholesterol Level Increase (%)” value in the data set on serum HDL cholesterol came to 29%.

`Cc1nc2cc(NC(=S)Nc3cc(Cl)ccc3C)ccc2s1` [Example 13, 1-(5-Chloro-2-methyl-phenyl)-3-(2-methyl-benzothiazol-5-yl)-thiourea]: the melting point lay in the range of 173 to 174 °C. For the same compound, in the data set with serum HDL cholesterol, the change in vivo at 100 mg/kg/day was 36%.

As to `Cc1ccc(Cl)cc1NC(=S)Nc1nc2ccccc2s1` [Example 2, 1-(Benzothiazol-2-yl)-3-(5-chloro-2-methyl-phenyl)-thiourea], in the data set with serum HDL cholesterol, the change in vivo at 100 mg/kg/day amounted to 6%.

`Cc1csc(NC(=S)Nc2cc(Cl)ccc2C)n1` [Example 9, 1-(5-Chloro-2-methyl-phenyl)-3-(4-methyl-thiazol-2-yl)-thiourea]: the melting point was 188 °C. Moreover, the change in vivo at 100 mg/kg/day in the data set on serum HDL cholesterol came out at 79%.

Compound `CCN(C(=S)Nc1cc(Cl)ccc1C)c1c(C)nn(C)c1C` [Example 19, 3-(5-Chloro-2-methyl-phenyl)-1-ethyl-1-(1,3,5-trimethyl-1H-pyrazol-4-yl)-thiourea] had a melting point of 144 to 145 °C. Also, the change in vivo at 100 mg/kg/day in the data set with serum HDL cholesterol came to 79%.

Turning to `CCc1nnc(NC(=S)Nc2cc(Cl)ccc2C)s1` [Example 14, 1-(5-Chloro-2-methyl-phenyl)-3-(5-ethyl-[1,3,4]thiadiazol-2-yl)-thiourea], the change in vivo at 100 mg/kg/day in the data set with serum HDL cholesterol was 90%.

In turn, `CCOC(=O)Cc1csc(NC(=S)Nc2cc(Cl)ccc2C)n1` [Example 11, {2-[3-(5-Chloro-2-methyl-phenyl)-thioureido]-thiazol-4-yl}-acetic acid ethyl ester] had a melting point of 177 to 179 °C. In addition, the change in vivo at 100 mg/kg/day with serum HDL cholesterol is 2%.
